The values below come from patent US12091393B2, “Small molecule vaccine adjuvant for enhancing or prolonging immune response” (The Regents of the University of California, priority 2018, dated 2024).

Data set [1] has as its system NF-κB. In words: Measurement of NF-κB activation using THP1-Blue NF-κB cells (SEAP). As to conditions: for activity at 5 µM: 20 h, two point normalized, compound 1 as 200%; for NF-κB activity (SAR discussion, in words): evaluated in both the presence and absence of LPS. The class given is cell-based.
Data set [2] has as its system NF-κB. The data set is described as follows: cell-based NF-κB FRET assay. As to conditions: compound + LPS; two point normalized, compound 1 as 200%, LPS (10 ng/mL) as 100%. The source says:
Site A was assigned the 4-substituent of thiazole ring, site B was the thiazole ring itself, site C was the central amide bond in the structure, site D was the benzene ring bearing 1,4-carboxyl and sulfamoyl group, site E was the sulfonamide functional group and site F was the amide substituent on the sulfamoyl group.

A further data set has as its system THP-1 cells. In words: Cell viability assay (MTT). The format is cell-based. As to conditions: compound 5 μM alone, 18 h, normalized to DMSO as 100%. How it is done:
THP-1 cells were plated in 96-well plates (10^5 cells/well) in 100 μL RPMI supplemented with 10% FBS, 100 U/mL penicillin and 100 μg/ml streptomycin. Compounds were dissolved in DMSO at 1 mM stock solution and were further diluted to 10 μM in the assay medium. 100 μL of this solution was added to the cells to obtain a final compound concentration of 5 μM ([…]). After 18 h incubation, a solution of MTT in assay media (0.5 mg/mL) was added to each well and further incubated for 4 to 6 h, followed by addition of cell lysis buffer (15% w/v SDS and 0.12% v/v 12N HCl aqueous solution), incubated overnight, and then absorbance measured at 570 nm using 650 nm as reference using Tecan Infinite M200 plate reader.

[3] abbreviates: compound 5 μM + LPS, LPS (10 ng/mL) as 100%, read-out: NF-κB SEAP Compound + LPS % Activation.
The mark [4] stands for this setting: compound 5 μM alone, LPS or DMSO as 100%, read-out: NF-κB SEAP Compound alone % Activation.

Entries after “also recorded” stand apart in the source; their conditions may differ. Read-outs that look alike come from different tables or passages of the source.

For `Cc1ccc(C)c(-c2csc(NC(=O)c3ccc(C(=O)N4CCCCC4)cc3)n2)c1` [Compound 49c, N-(4-(2,5-dimethylphenyl)thiazol-2-yl)-4-(piperidine-1-carbonyl)benzamide], the activity at 5 µM in the data set with NF-κB [1] (setting [3]) was 109%; in the data set on NF-κB [1] (setting [4]), 99.3%. Further, in the data set on NF-κB [1], the “NF-κB activity (SAR discussion, in words)” value (shortened to “NF-κB activity”) is reported as “none of these modifications at site D or E were tolerated”. Moreover, the “NF-κB FRET Compound + LPS % Activation” value in the data set with NF-κB [2] is given as 134.09%. In addition, the “MTT Compound alone % Viability” value in the data set with THP-1 cells turned out to be 87.59%.
With `Cc1ccc(C)c(Cc2csc(NC(=O)c3ccc(S(=O)(=O)N4CCCCC4)cc3)n2)c1` [Compound 12f, N-(4-(2,5-dimethylbenzyl)thiazol-2-yl)-4-(piperidin-1-ylsulfonyl)benzamide], the figures for the activity at 5 µM in the data set with NF-κB [1] (setting [3]) and in the data set with NF-κB [1] (setting [4]) were 108% and 102%, respectively. Moreover, in the data set with NF-κB [1], the “NF-κB activity” value was “inactive”. The “MTT Compound alone % Viability” value in the data set on THP-1 cells stood at 97.02%.
`CCCCc1sc(NC(=O)c2ccc(S(=O)(=O)N3CCCCC3)cc2)nc1-c1cc(C)ccc1C` [Compound 18s, N-(5-butyl-4-(2,5-dimethylphenyl)thiazol-2-yl)-4-(piperidin-1-ylsulfonyl)benzamide]: the activity at 5 µM with NF-κB [1] (setting [3]) was 124%; in the data set with NF-κB [1] (setting [4]) it was 116%. The “NF-κB activity” value in the data set with NF-κB [1] is on record as “retained activity”. For the same compound, the “NF-κB FRET Compound + LPS % Activation” value in the data set on NF-κB [2] came to 176.96%. Also, in the data set on THP-1 cells, the “MTT Compound alone % Viability” value is on record as 141.98%.
Regarding `Cc1ccc(C)c(-c2nc(NC(=O)c3ccc(S(=O)(=O)N4CCCCC4)cc3)sc2C#CCCCO)c1` [Compound 18u, N-(4-(2,5-dimethylphenyl)-5-(5-hydroxypent-1-yn-1-yl)thiazol-2-yl)-4-(piperidin-1-ylsulfonyl)benzamide], the results for the activity at 5 µM in the data set on NF-κB [1] (setting [3]) and with NF-κB [1] (setting [4]) were 134% and 100%, respectively. Moreover, the “MTT Compound alone % Viability” value in the data set on THP-1 cells turned out to be 104.08%.
Turning to `Cc1ccc(C)c(-c2cnc(NC(=O)c3ccc(S(=O)(=O)N4CCCCC4)cc3)s2)c1` [Compound 18e, N-(5-(2,5-dimethylphenyl)thiazol-2-yl)-4-(piperidin-1-ylsulfonyl)benzamide], the activity at 5 µM was found to be 95.1% with NF-κB [1] (setting [3]) and 98.3% with NF-κB [1] (setting [4]). Further, in the data set with NF-κB [1], the “NF-κB activity” value is listed as “none of these molecules that replaced the thiazole functionality were active”.
The corresponding values for `Cc1ccc(C)c(-c2nc(NC(=O)c3ccc(S(=O)(=O)N4CCCCC4)cc3)sc2-c2ccccc2)c1` [Compound 18i, N-(4-(2,5-dimethylphenyl)-5-phenylthiazol-2-yl)-4-(piperidin-1-ylsulfonyl)benzamide] are 98.4%, 98.3% and “completely inactive”.
Regarding `CCc1sc(NC(=O)c2ccc(S(=O)(=O)N3CCCCC3)cc2)nc1-c1cc(C)ccc1C` [Compound 18r, N-(4-(2,5-dimethylphenyl)-5-ethylthiazol-2-yl)-4-(piperidin-1-ylsulfonyl)benzamide], the activity at 5 µM with NF-κB [1] (setting [3]) and in the data set on NF-κB [1] (setting [4]) was 179% throughout. Further, the “NF-κB activity” value with NF-κB [1] is on record as “retained activity”. In addition, the “MTT Compound alone % Viability” value in the data set with THP-1 cells came to 103.66%.
For the compound `Cc1cccc(C)c1-c1csc(NC(=O)c2ccc(S(=O)(=O)N3CCCCC3)cc2)n1` [Compound 12p, N-(4-(2,6-dimethylphenyl)thiazol-2-yl)-4-(piperidin-1-ylsulfonyl)benzamide], the activity at 5 µM was 209% in the data set on NF-κB [1] (setting [3]) and 185% in the data set on NF-κB [1] (setting [4]). Moreover, in the data set on NF-κB [1], the “NF-κB activity” value is on record as “retained activity”. Also, in the data set on THP-1 cells, the “MTT Compound alone % Viability” value is 99.64%.
With `Cc1ccc(Br)c(-c2csc(NC(=O)c3ccc(S(=O)(=O)N4CCCCC4)cc3)n2)c1` [Compound 12d, N-(4-(2-bromo-5-methylphenyl)thiazol-2-yl)-4-(piperidin-1-ylsulfonyl)benzamide], the figures for the activity at 5 µM with NF-κB [1] (setting [3]) and in the data set with NF-κB [1] (setting [4]) were 223% and 254%, respectively. The “NF-κB activity” value with NF-κB [1] is “active; also recorded: most potent”. Moreover, in the data set on NF-κB [2], the “NF-κB FRET Compound + LPS % Activation” value is 197.32%.
`O=C(Nc1nc(-c2cccc3ccccc23)cs1)c1ccc(S(=O)(=O)N2CCCCC2)cc1` [Compound 12q, N-(4-(naphthalen-1-yl)thiazol-2-yl)-4-(piperidin-1-ylsulfonyl)benzamide]: the activity at 5 µM stood at 200% in the data set with NF-κB [1] (setting [3]) and 198% with NF-κB [1] (setting [4]). Moreover, in the data set on NF-κB [1], the “NF-κB activity” value was “equally potent”. Besides, the “MTT Compound alone % Viability” value with THP-1 cells turned out to be 92.71%.
As to `CCOc1sc(NC(=O)c2ccc(S(=O)(=O)N3CCCCC3)cc2)nc1-c1cc(C)ccc1C` [Compound 18l, N-(4-(2,5-dimethylphenyl)-5-ethoxythiazol-2-yl)-4-(piperidin-1-ylsulfonyl)benzamide], the activity at 5 µM in the data set on NF-κB [1] (setting [3]) was 111%; in the data set on NF-κB [1] (setting [4]), 104%. In addition, in the data set with NF-κB [1], the “NF-κB activity” value is on record as “partial activity”.
Regarding `Cc1ccc(C)c(-c2nnc(NC(=O)c3ccc(S(=O)(=O)N4CCCCC4)cc3)s2)c1` [Compound 18f, N-(5-(2,5-dimethylphenyl)-1,3,4-thiadiazol-2-yl)-4-(piperidin-1-ylsulfonyl)benzamide], the activity at 5 µM with NF-κB [1] (setting [3]) was 148%; in the data set with NF-κB [1] (setting [4]), 99.7%. In addition, the “NF-κB activity” value in the data set with NF-κB [1] was “none of these molecules that replaced the thiazole functionality were active”. Further, in the data set on THP-1 cells, the “MTT Compound alone % Viability” value was determined as 89.80%.
In the case of `C#CCN(C(=O)c1ccc(S(=O)(=O)N2CCCCC2)cc1)c1nc(-c2cc(C)ccc2C)cs1` [Compound 34d, N-(4-(2,5-dimethylphenyl)thiazol-2-yl)-4-(piperidin-1-ylsulfonyl)-N-(prop-2-yn-1-yl)benzamide], the activity at 5 µM in the data set on NF-κB [1] (setting [3]) worked out at 97.7%; with NF-κB [1] (setting [4]) it was 101%. In addition, the “NF-κB activity” value in the data set on NF-κB [1] is “inactive”.
The corresponding values for `Cc1ccc(C)c(-c2csc(NC(=O)c3ccc(S(=O)(=O)N4CCCCC4)s3)n2)c1` [Compound 46c, N-(4-(2,5-dimethylphenyl)thiazol-2-yl)-5-(piperidin-1-ylsulfonyl)thiophene-2-carboxamide] are 97.2%, 106% and “none of these modifications at site D or E were tolerated”.
Consider `CC(C)(C)c1csc(NC(=O)c2ccc(S(=O)(=O)N3CCCCC3)cc2)n1` [Compound 12k, N-(4-(tert-butyl)thiazol-2-yl)-4-(piperidin-1-ylsulfonyl)benzamide], for which the figures for the activity at 5 µM in the data set on NF-κB [1] (setting [3]) and in the data set on NF-κB [1] (setting [4]) were 94.1% and 99.5%, respectively. Also, the “NF-κB activity” value in the data set with NF-κB [1] is “None of these molecules had any NF-κB activity”. Besides, the “MTT Compound alone % Viability” value in the data set with THP-1 cells came out at 127.74%.
Consider `CCc1ccc(C)c(-c2csc(NC(=O)c3ccc(S(=O)(=O)N4CCCCC4)cc3)n2)c1` [Compound 12u, N-(4-(5-ethyl-2-methylphenyl)thiazol-2-yl)-4-(piperidin-1-ylsulfonyl)benzamide], for which the activity at 5 µM in the data set with NF-κB [1] (setting [3]) turned out to be 200%; in the data set with NF-κB [1] (setting [4]) it was 216%. For the same compound, in the data set on NF-κB [1], the “NF-κB activity” value is on record as “resulted in activity”.
Regarding `CCCC#Cc1sc(NC(=O)c2ccc(S(=O)(=O)N3CCC(CCC)CC3)cc2)nc1-c1cc(C)ccc1Br` [Compound 65, N-(4-(2-bromo-5-methylphenyl)-5-(pent-1-yn-1-yl)thiazol-2-yl)-4-((4-propylpiperidin-1-yl)sulfonyl)benzamide], the “NF-κB activity” value in the data set with NF-κB [1] was “very potent and showed better potency than compound 1”.
